Read-outs that look alike come from different tables or passages of the source.
Experiments:
Assay type in all cases: biochemical
[1] = target: T1, tPHD2 (PHD2 181-426) with HIF-1α CODD (Homo sapiens, UniProt Q9GZT9); experiment: RapidFire-MS PHD2 hydroxylation assay, HIF-1α CODD peptide substrate; details: for tPHD2 inhibition (in words): tPHD2, HIF-1α CODD substrate
T1 construct: catalytic domain of truncated PHD2 (tPHD2, residues 181–426); His6 (N, cleaved yes); made in house; host or cells: E. coli BL21 DE3
Protocol: (§1) 11–16 were then assayed using mass spectrometry (MS) for inhibition of the catalytic domain of truncated PHD2 (tPHD2, residues 181–426) and (in selected cases) PHD3, employing either human HIF-1α CODD or NODD peptide sequences (Table 1).
(§2) Supplementary Information
(§3) RapidFire-MS PHD2 hydroxylation assays
(§4) Inhibition of PHD2 enzyme activity was assessed by mass spectrometry. The enzyme assay monitors tPHD2181-426 catalysed turnover of a C-terminal oxygenase […]
(§5) C-terminal amide) and appearance of the hydroxylated peptide product
(§6) (hydroxylation of proline 564) with a typical incubation time of 15 minutes.2 Assays were performed in 50 mM Tris.Cl pH 7.8, 50 mM NaCl, titrations of compounds for […]
(§7) ECHO 550 acoustic dispenser (Labcyte) and dry dispensed into 384-well polypropylene assay plates. The final assay concentration of DMSO was kept constant at 0.5% (v/v). tPHD2181-426 was at a concentration of 300 nM in the assay buffer (20 μM ferrous iron sulfate, 200 μM L-ascorbic acid, 10 μM CODD or NODD peptide and 20 μM 2-oxoglutarate) and 25 μl was dispensed across each 384-well assay plate. tPHD2181-426 was allowed to equilibrate with compounds for 15 minutes; the reaction was then initiated by addition of 25 μl of substrate.2 Enzyme reactions were allowed to proceed for 15 minutes and the reaction terminated by addition of 10% (v/v) formic acid (5 μl). Assay plates were then transferred to a RapidFire RF360 sampling robot (Agilent) connected to an Agilent 6530 quadrupole-time-of-flight (Q-TOF) mass spectrometer. Assay samples were aspirated under vacuum and loaded onto a C4 solid phase extraction (SPE) cartridge. After loading, the C4 SPE cartridge was washed with 0.1 % (v/v) formic acid in water to remove non-volatile buffer salts.
(§8) The peptide was then eluted from the SPE with 85% acetonitrile, 15% water containing 0.1% (v/v) formic acid into the mass spectrometer. Peptide charge states were monitored in the positive ion mode. Ion chromatogram data were extracted for […]
(§9) the +2 charge state and peak area data integrated using RapidFire Integrator software (Agilent). The % conversion of the CODD peptide substrate to the +16 hydroxylated peptide was calculated using the equation: […]
(§10) data were determined from non-linear regression plots using GraphPad prism 6.0.
(§11) All data were normalized to a no enzyme control.2

[2] = target: T2, tPHD2 (PHD2 181-426) with HIF-1α NODD (Homo sapiens, UniProt Q9GZT9); experiment: RapidFire-MS PHD2 hydroxylation assay, HIF-1α NODD peptide substrate
T2 construct: catalytic domain of truncated PHD2 (tPHD2, residues 181–426); His6 (N, cleaved yes); made in house; host or cells: E. coli BL21 DE3
Protocol: as §1, §2, §3, §4, §5, §6, §7, §8, §9, §10, §11

KDM4A = target: T3, KDM4A (Homo sapiens, UniProt O75164); experiment: KDM4A selectivity assay with H3(1-15) K9Me3, RapidFire-MS; details: isolated KDM4A, Table S2
T3 sequence (O75164 1-1064): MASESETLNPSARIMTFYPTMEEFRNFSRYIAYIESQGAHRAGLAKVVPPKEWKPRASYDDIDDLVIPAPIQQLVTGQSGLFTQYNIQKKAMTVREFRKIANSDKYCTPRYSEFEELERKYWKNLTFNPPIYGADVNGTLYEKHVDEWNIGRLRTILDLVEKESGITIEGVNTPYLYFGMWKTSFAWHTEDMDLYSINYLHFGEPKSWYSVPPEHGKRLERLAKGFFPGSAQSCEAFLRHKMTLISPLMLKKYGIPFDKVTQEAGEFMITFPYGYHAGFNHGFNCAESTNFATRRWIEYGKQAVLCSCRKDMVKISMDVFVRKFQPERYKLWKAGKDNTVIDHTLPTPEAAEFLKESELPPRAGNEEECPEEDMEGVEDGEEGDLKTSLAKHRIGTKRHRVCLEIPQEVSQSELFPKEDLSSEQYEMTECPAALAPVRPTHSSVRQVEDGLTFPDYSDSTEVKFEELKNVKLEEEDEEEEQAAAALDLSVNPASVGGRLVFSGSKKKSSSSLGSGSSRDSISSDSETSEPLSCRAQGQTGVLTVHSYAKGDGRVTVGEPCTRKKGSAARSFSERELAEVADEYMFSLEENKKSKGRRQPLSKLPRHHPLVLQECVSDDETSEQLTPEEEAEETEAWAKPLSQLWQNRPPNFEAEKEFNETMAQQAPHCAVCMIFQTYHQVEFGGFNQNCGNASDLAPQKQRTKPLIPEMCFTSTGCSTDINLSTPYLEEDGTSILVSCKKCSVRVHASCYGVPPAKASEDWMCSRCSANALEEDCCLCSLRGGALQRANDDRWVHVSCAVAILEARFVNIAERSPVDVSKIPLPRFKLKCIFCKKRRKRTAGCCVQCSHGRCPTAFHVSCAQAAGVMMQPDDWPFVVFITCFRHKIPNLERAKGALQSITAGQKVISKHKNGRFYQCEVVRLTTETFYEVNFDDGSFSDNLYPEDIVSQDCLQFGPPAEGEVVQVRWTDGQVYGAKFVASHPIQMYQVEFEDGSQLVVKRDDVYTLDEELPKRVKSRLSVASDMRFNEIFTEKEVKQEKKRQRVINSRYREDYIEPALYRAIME
Description: (§12) We carried out initial studies on the selectivity of the spiro[4.5]decanone series.
as §2
(§13) Table S2: Studies on the selectivity of spiro[4.5]decanone containing inhibitors.
(§14) Compounds were screened against FIH with the HIF-1α CAD peptide D788 - L822 and
(§15) KDM4A with H3(1 - 15) K9Me3. Both assays employed the RapidFire-MS sampling
(§16) machine. See Experimental Methods for details. 2 […]

[3] = target: factor inhibiting HIF (FIH) (Homo sapiens, UniProt Q9NWT6); experiment: FIH selectivity assay with HIF-1α CAD peptide D788-L822, RapidFire-MS; details: isolated FIH, Table S2
Description: as §12, §2, §13, §14, §15, §16

PHD3 = PHD3 (Homo sapiens, UniProt Q9H6Z9); experiment: PHD3 catalysed HIF-1α CODD hydroxylation, RapidFire mass spectrometry
Protocol: as §1, §12

[4] = tPHD2 181-426, HIF-1α CODD peptide, RapidFire MS, standard error of the mean (n = 3), read-out: PHD2 with HIF1-α CODD IC50
[5] = tPHD2 181-426, HIF-1α NODD peptide, RapidFire MS, standard error of the mean (n = 3), read-out: PHD2 with HIF1-α NODD IC50

T2 sequence (Q9GZT9 181-426): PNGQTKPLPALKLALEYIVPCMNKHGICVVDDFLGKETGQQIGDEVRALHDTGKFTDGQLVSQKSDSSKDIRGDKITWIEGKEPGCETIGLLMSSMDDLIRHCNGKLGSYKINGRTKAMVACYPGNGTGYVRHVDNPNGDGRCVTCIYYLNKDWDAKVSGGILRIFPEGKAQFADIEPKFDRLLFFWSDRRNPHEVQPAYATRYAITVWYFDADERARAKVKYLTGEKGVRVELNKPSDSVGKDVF
T1 sequence (Q9GZT9 181-426): as above
PHD3, sequence (Q9H6Z9 whole entry): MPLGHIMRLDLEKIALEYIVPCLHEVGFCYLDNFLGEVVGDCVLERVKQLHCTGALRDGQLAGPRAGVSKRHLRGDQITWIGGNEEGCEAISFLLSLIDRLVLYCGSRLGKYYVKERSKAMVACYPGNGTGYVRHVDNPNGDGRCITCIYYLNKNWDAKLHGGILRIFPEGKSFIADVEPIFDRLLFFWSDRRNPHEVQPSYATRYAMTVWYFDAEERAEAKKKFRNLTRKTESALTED
factor inhibiting HIF (FIH), sequence (Q9NWT6 whole entry): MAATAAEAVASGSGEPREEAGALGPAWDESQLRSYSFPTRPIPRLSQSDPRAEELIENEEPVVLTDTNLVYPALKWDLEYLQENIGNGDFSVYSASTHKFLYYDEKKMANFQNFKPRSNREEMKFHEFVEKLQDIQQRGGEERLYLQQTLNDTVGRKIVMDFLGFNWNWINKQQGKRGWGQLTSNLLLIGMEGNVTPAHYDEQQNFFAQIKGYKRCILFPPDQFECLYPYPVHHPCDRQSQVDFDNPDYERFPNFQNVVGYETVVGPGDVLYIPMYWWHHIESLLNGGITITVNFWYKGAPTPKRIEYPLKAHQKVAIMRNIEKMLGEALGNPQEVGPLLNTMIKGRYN

SMILES	IC50 [1, 4]	tPHD2 inhibition (in words) [1]	IC50 [2, 5]	further results
O=C1N(c2ccc(-c3ccccc3)cc2)C(=O)C2(CCN(Cc3cccs3)CC2)N1c1ncccn1 [Compound 12]	> 25000 nM	inactive	> 25000 nM	–
Cn1ccnc1CN1CCC2(CC1)C(=O)N(c1ccc(-c3ccccc3)cc1)C(=O)N2c1ncccn1 [Compound 14]	–	maintained potent inhibition	–	IC50 [1]: 143 ± 97 nM; IC50 [2]: 49 ± 5 nM; KDM4A inhibition (in words) (KDM4A): weak
COc1cccc(CN2CCC3(CC2)C(=O)N(c2ccc(-c4ccccc4)cc2)C(=O)N3c2ncccn2)n1 [Compound 16]	1210 ± 226 nM	–	905 ± 417 nM	–
O=C1N(c2ccc(-c3ccccc3)cc2)C(=O)C2(CCN(Cc3ncc[nH]3)CC2)N1c1ncccn1 [Compound 15]	215 ± 19 nM	maintained potent inhibition	70 ± 21 nM	–
COc1ccnc(N2C(=O)N(c3ccc(-c4ccccc4)cc3)C(=O)C23CCN(Cc2ncccc2C)CC3)n1 [Compound 26]	289 ± 11 nM	–	55 ± 15 nM	FIH inhibition (in words) [3]: weak
Cc1cccnc1CN1CCC2(CC1)C(=O)N(c1ccc(-c3ccccc3)cc1)C(=O)N2c1ncccn1 [Compound 11]	–	–	–	KDM4A inhibition (in words) (KDM4A): weak
Cc1cccnc1CN1CCC2(CC1)C(=O)N(c1ccc(-c3ccccc3)cc1)C(=O)N2c1cc(C(=O)O)ccn1 [Compound 27]	380 ± 64 nM	–	94 ± 32 nM	–
O=C1N(c2ccc(-c3ccccc3)cc2)C(=O)C2(CCN(Cc3ccccc3O)CC2)N1c1ncccn1 [Compound 13]	–	inactive	–	IC50 [1]: > 25000 nM; IC50 [2]: > 25000 nM
Cc1cccnc1CN1CCC2(CC1)NC(=O)N(c1ccc(-c3ccccc3)cc1)C2=O [Compound 23]	–	–	–	IC50 (PHD3): 1050 ± 40 nM
Cn1ccnc1CN1CCC2(CC1)NC(=O)N(c1ccc(-c3ccccc3)cc1)C2=O [Compound 24]	151 ± 35 nM	–	63 ± 16 nM	IC50 (PHD3): 219 ± 25 nM
O=C1N(c2ccc(-c3ccccc3)cc2)C(=O)C2(CCNCC2)N1c1ncccn1 [Compound 10]	> 25000 nM	–	> 25000 nM	–
